Data: patent US12491184B2 (Veradermics, Incorporated, priority 2022, dated 2025)

Columns and labels:
[1] = test system: male adults with AGA; conditions: cited from earlier work
[2] = test system: patients; conditions: cited from earlier work
[3] = 2.5 mg, 5 mg, or 10 mg oral; cited from earlier work
[4] = test system: mice; conditions: dietary, up to 2 years, 63 mg/kg/day; cited from earlier work
[5] = test system: patient with androgenetic alopecia; conditions: 1.25 mg QID
[6] = test system: dogs; conditions: short-term administration 0.5 mg to 10 mg/kg/day; cited from earlier work
[7] = oral; cited from earlier work
[8] = test system: animal; conditions: long term animal studies; cited from earlier work

## Nc1cc(N2CCCCC2)nc(N)[n+]1[O-] [minoxidil]
[1]; 5 mg oral at bedtime, 24 weeks
  adverse cardiovascular outcomes: No adverse cardiovascular outcomes
  change in mean heart rate: no overall change in mean heart rate
  laboratory variables before versus after treatment: no differences
[1]; at the follow-up visit
  subjects developing tachycardia: 1 subject
[2]; human, in vivo
  emergence of hypertrichosis signs after starting treatment: 3-6 weeks
  spontaneous reversal of hypertrichosis after cessation of therapy: 1-6 months
[2]; treated patients
  occurrence of hypertrichosis: most patients
[3]
  differences in systolic and diastolic blood pressure (time effects within treatments): less than 10%
  effect on blood pressure in normotensive subjects: little effect on blood pressure
[4]
  incidence of hepatic nodules in males: increased incidence of hepatic nodules
[5]
  unwanted hair growth or other adverse events: No unwanted hair growth or other adverse events, including any cardiac effects
[6]
  cardiac findings: various cardiac lesions
[7]
  absorbed from the gastrointestinal tract: > 90%
[8]
  cardiac findings: cardiac hypertrophy, cardiac dilation, and serosanguineous pericardial fluid
